# Data as given in the supplement of paper PMC11208160.
# Assay: recombinant UMI read abundance after kanamycin selection (control-corrected) (log10(CPM+1)); higher = more efficient recombination; extreme values may be limits of the assay; sequences stand for … in AGTGCAGAGAAAATCGGCCAGTTTTCTCTGCCTGCAGTCCGCATGCCGTGGGACCCCTTGGGTTCTAACCTGTTGCCTAGATTTATGCAGCGGACTGCCTTTCTCCCAAAGTGATAAACCGG…AGGTTGGTTTCACT; site = the 11-nt donor
# Method in brief: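 Values are reported as log10(CPM+1), obtained by converting sequencing counts to CPM, averaging replicates and scaling by control-derived factors. The counts came from recombinant UMIs amplified by PCR across the donor–target junction. These UMIs came from a pooled Escherichia coli screen of donor and donor-binding-loop pairs for the IS621 bridge recombinase, plated with IPTG (0.07 mM) plus kanamycin or left unselected, in two replicates each.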
# 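Note: IS621 bridge recombinase in Escherichia coli cells against a fixed T5 target plasmid.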
row,Sequence,recombinant UMI read abundance (log10)
1,CAAGTCTCATGGACCGGTTTTCCCGGTAATCCGTATTTGGG (site CAAGTCTCTCC),0.916
2,CAAGTGACATGGACCGGTTTTCCCGGTAATCCGTATTTGGG (site CAAGTAACTCC),1.09
3,CAAGTGACATGGACCGGTTTTCCCGGTAATCCGTATTTGGG (site CAAGTCACTCC),0.00913
4,CAAGTGACATGGACCGGTTTTCCCGGTAATCCGTATTTGGG (site CAAGTGACTCC),0.246
5,CAAGTGACATGGACCGGTTTTCCCGGTAATCCGTATTTGGG (site CAAGTTACTCC),0.48
6,CAATACGCATGGACCGGTTTTCCCGGTAATCCGTATTTGAT (site CAATACGCTAT),2.03
7,CAATACTCATGGACCGGTTTTCCCGGTAATCCGTATTTGAA (site CAATACTCTTT),3.09
8,CAATACTCATGGACCGGTTTTCCCGGTAATCCGTATTTGAA (site CAATCCTCTTT),0
9,CAATACTCATGGACCGGTTTTCCCGGTAATCCGTATTTGAA (site CAATGCTCTTT),0.0128
10,CAATACTCATGGACCGGTTTTCCCGGTAATCCGTATTTGAA (site CAATTCTCTTT),0
11,CAATCACCATGGACCGGTTTTCCCGGTAATCCGTATTTGCT (site CAATCACCTAG),0.00562
12,CAATCACCATGGACCGGTTTTCCCGGTAATCCGTATTTGCT (site CGATCATCTAG),0
13,CAATCATCATGGACCGGTTTTCCCGGTAATCCGTATTTGCT (site CAATCATCTAG),2.15
14,CAATCATCATGGACCGGTTTTCCCGGTAATCCGTATTTGCT (site CCATCATCTAG),0.883
15,CAATCATCATGGACCGGTTTTCCCGGTAATCCGTATTTGCT (site CGATCATCTAG),0.258
16,CAATCATCATGGACCGGTTTTCCCGGTAATCCGTATTTGCT (site CTATCATCTAG),0.404
17,CAATCTGCATGGACCGGTTTTCCCGGTAATCCGTATTTGCT (site CAATCTGCTAG),0.515
18,CAATGCCCATGGACCGGTTTTCCCGGTAATCCGTATTTGAA (site CAATGCACTTT),0.00911
19,CAATGCCCATGGACCGGTTTTCCCGGTAATCCGTATTTGAA (site CAATGCCCTTT),1

row,Sequence,recombinant UMI read abundance (log10)
1,CAATGCCCATGGACCGGTTTTCCCGGTAATCCGTATTTGAA (site CAATGCGCTTT),0.00922
2,CAATGCCCATGGACCGGTTTTCCCGGTAATCCGTATTTGAA (site CAATGCTCTTT),1.62
3,CAATGCTCATGGACCGGTTTTCCCGGTAATCCGTATTTGAG (site CAATGCTCTAT),1.46
4,CAATGCTCATGGACCGGTTTTCCCGGTAATCCGTATTTGAG (site CAATGCTCTCT),2.2
5,CAATGCTCATGGACCGGTTTTCCCGGTAATCCGTATTTGAG (site CAATGCTCTGT),0.535
6,CAATGCTCATGGACCGGTTTTCCCGGTAATCCGTATTTGAG (site CAATGCTCTTT),0.812
7,CAATGGCCATGGACCGGTTTTCCCGGTAATCCGTATTTGCG (site CAATGGCCTCG),0.00456
8,CAATGGTCATGGACCGGTTTTCCCGGTAATCCGTATTTGAA (site CAATGATCTTT),2.68
9,CAATGGTCATGGACCGGTTTTCCCGGTAATCCGTATTTGAA (site CAATGCTCTTT),0.00506
10,CAATGGTCATGGACCGGTTTTCCCGGTAATCCGTATTTGAA (site CAATGGTCTTT),2.39
11,CAATGGTCATGGACCGGTTTTCCCGGTAATCCGTATTTGAA (site CAATGTTCTTT),0
12,CAATGTTCATGGACCGGTTTTCCCGGTAATCCGTATTTGAA (site CAATGATCTTT),0.287
13,CAATGTTCATGGACCGGTTTTCCCGGTAATCCGTATTTGAA (site CAATGCTCTTT),0.0108
14,CAATGTTCATGGACCGGTTTTCCCGGTAATCCGTATTTGAA (site CAATGGTCTTT),0.0106
15,CAATGTTCATGGACCGGTTTTCCCGGTAATCCGTATTTGAA (site CAATGTTCTTT),2.11
16,CAATTAACATGGACCGGTTTTCCCGGTAATCCGTATTTGCT (site CAATTAACTAG),0.982
17,CAATTCACATGGACCGGTTTTCCCGGTAATCCGTATTTGGG (site CAAATCACTCC),0.839
18,CAATTCACATGGACCGGTTTTCCCGGTAATCCGTATTTGGG (site CAACTCACTCC),0.251
19,CAATTCACATGGACCGGTTTTCCCGGTAATCCGTATTTGGG (site CAAGTCACTCC),0.0135
